What was measured:
[1] = tested on: induced colitis; details: induced colitis model in mice, by reducing the inflammation phenomenon; cited from earlier work
[2] = tested on: human colon epithelial cells Caco2; assay: Epithelial cells repair: cicatrisation of a lesion on a Caco2 monolayer; format: cell-based
Method: A lesion is practiced using a sterilised forceps on human colon epithelial cells Caco2 in monolayer and at a confluence. Afterwards, the cells are rinsed twice with sterilised […] and then placed in an adequate culture medium. In this medium, vorapaxar at different concentrations (10 nM, 100 nM, 1 μM, 10 μM) or the vehicle (control) are added in independent culture dishes. The cicatrisation of the lesion is supervised and analysed using a confocal microscope for 28 h. The percentage of the lesioned surface of the lesion is determined for each tested condition, 4 h, 22 h and 28 h after the lesion. The obtained results are shown in FIG. 12, respectively in a/, b/ and c/.

[3] = tested on: nociceptive response induced by TNBS; assay: Nociceptive response (allodynia) by Von Frey filaments technique in TNBS colitis rats; format: in vivo, rat; details: 2.5 mg/kg/day, 7 days after colitis induction
Method: (§1) Different parameters are measured: the weight of the rats, the presence of blood in the faeces and the diarrhoeas assessed by the disease activity index (DAI score), the intensity of pain (assessed by Von Frey filaments technique measured on days 3 and 7).
The intensity of the pain is measured by the Von Frey filaments technique on days […], according to the protocol described in the publication of Auge et al., 2013, Eur. J. Pharmacol. 707: 32-40.
The effect on the nociceptive response, measured by Von Frey filaments technique according to the mass of Von Frey filaments, is shown in FIG. 10 for prednisolone and in FIG. 11 for vorapaxar.

[4] = tested on: inflammatory bowel disease induced by 2,4,6-trinitrobenzenesulfonic acid (TNBS); assay: Colitis induced by intra-colonical TNBS in rats (body weight, DAI score, colon wall thickness, macroscopic damage score, MPO); format: in vivo, male laboratory rat of the Wistar strain
Text: The purpose of this study is to assess the effectiveness of two PAR-1 antagonists, vorapaxar and 3-2-(chloro-phenyl)-1-[4-(4-fluoro-benzyl)-piperazine-1-yl]propenone (hereinafter, referred to as CSI) in a model of an inflammatory bowel disease induced by 2,4,6-trinitrobenzenesulfonic acid (TNBS) in a male laboratory rat of the Wistar strain. This model is described in the publication of Whittle et al., 2003, in Methods Mol. Biol., 225, 209-222.
In this induced colitis model, the inflammatory reaction is measured every day and is well established 7 days after intra-colonical administration of TNBS.
as §1
The rats are sacrificed 7 days after the beginning of the treatment and the macroscopic damages, the oedema and a marker of the inflammation, myeloperoxidase (MPO), are quantified.
The experiments with the PAR-1 antagonists are carried out in two studies, relating to vorapaxar and CSI, respectively.
The colitis is induced by intra-colonical administration of 2,4,6-trinitrobenzenesulfonic acid (TNBS) (30 mg of TNBS in 0.25 ml of a 50% ethanol/NaCl solution) via a catheter (polyethylene (PE)-60) inserted 8 cm proximally from the anus.
Four groups of 10 rats receive an intra-colonical administration of TNBS, as well as a per os treatment of vorapaxar at the dose of 2.5 mg/kg/day or of CSI at doses of 10 and 40 mg/kg/day or of prednisolone (a compound proposed by the prior art for the treatment of IBDs) at the dose of 3 mg/kg/day. The per os treatments start 1 h before the intra-colonical administration of TNBS.
As a negative comparative example, 1 group of 10 rats receives an intra-colonical administration of TNBS and of the vorapaxar vehicle (phosphate buffered saline—PBS) or of the CSI vehicle (carboxymethyl cellulose—CMC at 1%) per os daily.
Moreover, 1 group of 6 control rats receives an intra-colonical administration of NaCl instead of TNBS.
The DAI score is determined as follows. The development of the disease is estimated on a daily basis. The consistence of the excrements, as well as the presence of blood in the faeces assessed with the Hemoccult® paper test, are respectively quantified by the seriousness scales of Table 3 hereinbelow. The obtained values are added together to obtain the DAI score.
The macroscopic damage score is assessed according to the protocol described in the publication of Comera et al., 1999, Dig. Dis. Sci. 44: 1448-1457, as follows. On day 7 after induction of the colitis, the rats are sacrificed by carbon dioxide CO2 inhalation, the colon (from the anus to the Caecum) is removed and the macroscopic damages are assessed according to the parameters observed and presented in Table 4 hereinbelow, to determine the macroscopic damage score.

| SMILES | survival rate of animals [1] | cicatrisation of the lesion (percentage of the lesioned surface) ([2]; Caco2, 4 h after the lesion, 100 nM, 1 μM and 10 μM) | cicatrisation of the lesion (percentage of the lesioned surface) ([2]; Caco2, 22 h after the lesion, 10 nM to 10 μM) | cicatrisation of the lesion (percentage of the lesioned surface) ([2]; Caco2, 28 h after the lesion, from 100 nm to 10 μM) | allodynia-type response (Von Frey) [3] | disease activity index (DAI) ([4]; 2.5 mg/kg daily, 7th day) | apparition of oedema (thickness of the wall of the colon) ([4]; 2.5 mg/kg daily, 7th day, vs vehicle group) | disease activity index (DAI) ([4]; 2.5 mg/kg, as of the 1st day, vs vehicle group) | weight loss (body weight) ([4]; 2.5 mg/kg/day per os, as of the 2nd day) | macroscopic damage score ([4]; 2.5 mg/kg/day, day 7, vs vehicle group) |
| --- | --- | --- | --- | --- | --- | --- | --- | --- | --- | --- |
| COc1ccc(C[C@H](NC(=O)Nc2ccc3c(CN4CCCC4)cn(Cc4c(Cl)cccc4Cl)c3c2)C(=O)N[C@@H](CCCNC(=N)N)C(=O)NCc2ccccc2)cc1 [L-arininamide-4-methoxy-N-[[[1-[92,6-dichlorophenyl-methyl]-3-(1-pyrrolidinylmethyl)-1H-indol-6-yl]amino]carbonyl]-1-phenylalanyl-N-(phenylmethyl)-(5)] | improving the survival rate |  |  |  |  |  |  |  |  |  |
| CCOC(=O)N[C@@H]1CC[C@@H]2[C@@H](C1)C[C@H]1C(=O)O[C@H](C)[C@H]1[C@H]2/C=C/c1ccc(-c2cccc(F)c2)cn1 [vorapaxar, ethyl N-[(1R,3aR,4aR,6R,8aR,9S,9aS)-9-[(E)-2-[5-(3-fluorophenyl)pyridin-2-yl]ethenyl]-1-methyl-3-oxo-3a,4,4a,5,6,7,8,8a,9,9a-decahydro-1H-benzo[f][2]benzofuran-6-yl]carbamate] |  | highly enhanced | amplifies the cicatrisation surface in a concentration-dependent way | complete cicatrisation | significantly inhibits | significantly reduces | significantly reduces | significantly reduced | significantly reduces | significantly reduces |

Source: patent publication US20220062247A1, “USE OF A PAR-1 ANTAGONIST FOR THE TREATMENT OF A CHRONIC INFLAMMATORY INTESTINAL DISEASE” (CVASTHERA, priority 2018, published 2022)
